What was measured:
[1] = biological target: T1, Xanthine dehydrogenase/oxidase (Bos taurus, UniProt P80457); experiment: Inhibition of cow milk xanthine oxidase by Lineweaver-Burke plot analysis; conditions: read-out: Activity
[2] = biological target: T1, Xanthine dehydrogenase/oxidase; experiment: Inhibition of cow milk xanthine oxidase

T1 sequence (P80457 whole entry): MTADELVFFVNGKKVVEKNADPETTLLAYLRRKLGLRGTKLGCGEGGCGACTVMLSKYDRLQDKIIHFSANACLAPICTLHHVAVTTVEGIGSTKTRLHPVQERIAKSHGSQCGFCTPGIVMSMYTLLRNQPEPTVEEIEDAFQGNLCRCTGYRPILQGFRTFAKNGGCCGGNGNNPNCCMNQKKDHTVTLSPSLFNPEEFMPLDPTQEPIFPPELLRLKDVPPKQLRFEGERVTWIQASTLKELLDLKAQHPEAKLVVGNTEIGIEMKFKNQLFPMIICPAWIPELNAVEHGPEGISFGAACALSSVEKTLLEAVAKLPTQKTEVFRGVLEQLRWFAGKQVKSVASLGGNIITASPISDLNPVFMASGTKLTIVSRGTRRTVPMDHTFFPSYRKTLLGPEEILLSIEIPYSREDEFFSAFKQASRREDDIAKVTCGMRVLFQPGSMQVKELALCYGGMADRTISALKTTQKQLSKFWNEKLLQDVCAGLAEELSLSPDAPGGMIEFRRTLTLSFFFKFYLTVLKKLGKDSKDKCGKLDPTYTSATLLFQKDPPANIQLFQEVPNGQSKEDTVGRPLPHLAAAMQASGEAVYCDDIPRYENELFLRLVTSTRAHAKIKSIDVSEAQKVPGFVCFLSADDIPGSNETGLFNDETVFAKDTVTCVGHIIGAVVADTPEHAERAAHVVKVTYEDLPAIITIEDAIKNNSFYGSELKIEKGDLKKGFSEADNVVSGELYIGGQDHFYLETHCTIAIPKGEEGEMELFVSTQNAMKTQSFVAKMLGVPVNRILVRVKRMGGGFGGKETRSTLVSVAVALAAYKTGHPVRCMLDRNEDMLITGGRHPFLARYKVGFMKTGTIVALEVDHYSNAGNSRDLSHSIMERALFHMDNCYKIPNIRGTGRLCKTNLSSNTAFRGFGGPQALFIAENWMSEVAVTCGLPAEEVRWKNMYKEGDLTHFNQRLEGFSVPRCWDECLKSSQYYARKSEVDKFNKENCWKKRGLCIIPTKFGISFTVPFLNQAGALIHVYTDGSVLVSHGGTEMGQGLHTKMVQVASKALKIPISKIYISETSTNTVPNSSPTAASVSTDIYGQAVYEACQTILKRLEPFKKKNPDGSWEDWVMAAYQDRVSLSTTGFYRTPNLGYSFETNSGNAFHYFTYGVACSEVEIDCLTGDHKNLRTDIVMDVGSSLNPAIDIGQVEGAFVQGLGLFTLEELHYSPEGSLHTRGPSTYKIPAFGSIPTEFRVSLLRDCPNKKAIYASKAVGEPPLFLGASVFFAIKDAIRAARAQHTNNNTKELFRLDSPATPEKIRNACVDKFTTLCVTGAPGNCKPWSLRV

## O=C(OC[C@H]1O[C@@H](OC(=O)c2cc(O)c(O)c(O)c2)[C@H](OC(=O)c2cc(O)c(O)c(O)c2)[C@@H](OC(=O)c2cc(O)c(O)c(O)c2)[C@@H]1OC(=O)c1cc(O)c(O)c(O)c1)c1cc(O)c(O)c(O)c1 [PENTAGALLOYL GLUCOSE]
[1]
  Ki: 2120 nM
[2]
  IC50: 3200 nM
